Literature values, collected in US9668974B2, “Depot formulations of a local anesthetic and methods for preparation thereof” (PAINREFORM LTD., priority 2012, dated 2017).

Details: in vivo

## CCCN1CCCC[C@H]1C(=O)Nc1c(C)cccc1C [ropivacaine]
  Toxic threshold (plasma ropivacaine): 0.6 µg/mL
